Assay results from patent publication US10786571B2, “Hydrophilic gel for topical delivery of 5-aminolevulinic acid” (Zimmer Biotech GmbH, priority 2015, dated 2020).

Tests used:
[1] = Stability of 5-ALA / product; type: physicochemical; conditions: different storage conditions
[2] = aqueous solution; cited from earlier work
[3] = cited from earlier work

| Compound | long-term stability in double chamber tube [1] | pH of best stability of aqueous solutions [2] | sensitivity to daylight after treatment [3] [days] |
| --- | --- | --- | --- |
| NCC(=O)CCC(=O)O [5-ALA, 5-aminolevulinic acid] | long-term stable at different storage conditions without degradation | < 6 | 1 to 2 |
| Porfimer Sodium [Photofrin] |  |  | 30 to 60 |
